We go through 14 molecules from patent US7655657B2, “Fused bicycloheterocycle substituted quinuclidine derivatives” (Abbott Laboratories, priority 2003, dated 2010).

Structures can show the parent of a compound that is named as a salt. Where two headings read alike, the source gives them in different places.

One data set has as its target hERG ion channel (Homo sapiens, UniProt Q12809). In words: [3H]-dofetilide binding to membranes from HERG-transfected HEK cells. The note with it: for selectivity ratio at 45 min: human, membrane preparations from HERG-transfected HEK cells, pH 7.4, probe [3H]-dofetilide.
In a further data set the target is T1, α7 nAChRs (Rattus norvegicus, UniProt Q05941).
T1 construct: Membrane enriched fractions from rat brain minus cerebellum; tissue ABS Inc., Wilmington, Del; host or cells: rat brain minus cerebellum
T1 sequence (Q05941 23-502): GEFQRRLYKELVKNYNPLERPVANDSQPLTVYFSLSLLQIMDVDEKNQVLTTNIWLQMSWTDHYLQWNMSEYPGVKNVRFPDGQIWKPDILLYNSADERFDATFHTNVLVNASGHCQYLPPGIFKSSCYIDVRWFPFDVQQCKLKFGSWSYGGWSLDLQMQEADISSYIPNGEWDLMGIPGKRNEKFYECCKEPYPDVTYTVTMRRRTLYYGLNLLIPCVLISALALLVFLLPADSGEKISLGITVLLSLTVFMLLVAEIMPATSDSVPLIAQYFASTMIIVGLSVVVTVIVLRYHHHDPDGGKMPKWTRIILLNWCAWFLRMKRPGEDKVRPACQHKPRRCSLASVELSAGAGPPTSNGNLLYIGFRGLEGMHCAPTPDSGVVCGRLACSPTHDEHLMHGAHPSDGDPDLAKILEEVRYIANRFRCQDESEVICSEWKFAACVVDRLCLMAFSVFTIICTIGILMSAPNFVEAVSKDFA
In words: [3H]-methyllycaconitine (MLA) binding assay. How it is done: To determine the effectiveness of representative compounds of this invention as α7 nAChRs, the compounds of the invention were evaluated according to the [3H]-methyllycaconitine (MLA) binding assay and considering the [^3H]-cytisine binding assay, which were performed as described below.
[^3H]-Methyllycaconitine (MLA) Binding
Binding conditions were similar to those for [^3H]-cytisine binding. Membrane enriched fractions from rat brain minus cerebellum (ABS Inc., Wilmington, Del.) were slowly thawed at 4° C., washed and resuspended in 30 volumes of BSS-Tris buffer (120 mM NaCl, 5 mM KCl, 2 mM CaCl2, 2 mM MgCl2, and 50 mM Tris-Cl, pH 7.4, 22° C.). Samples containing 100-200 μg of protein, 5 nM [^3H]-MLA (25 Ci/mmol; Perkin Elmer/NEN Life Science Products, Boston, Mass.) and 0.1% bovine serum albumin (BSA, Millipore, Bedford, Mass.) were incubated in a final volume of 500 μL for 60 minutes at 22° C. Seven log-dilution concentrations of each compound were tested in duplicate. Non-specific binding was determined in the presence of 10 μM MLA. Bound radioactivity was isolated by vacuum filtration onto glass fiber filter plates prewetted with 2% BSA using a 96-well filtration apparatus (Packard Instruments, Meriden, Conn.) and were then rapidly rinsed with 2 mL of ice-cold BSS. Packard MicroScint-20® scintillation cocktail (40 μL) was added to each well and radioactivity was determined using a Packard TopCount® instrument. The IC50 values were determined by nonlinear regression in Microsoft Excel® software. Ki values were calculated from the IC50s using the Cheng-Prusoff equation, where Ki=IC50/1+[Ligand]/KD].

The mark [1] stands for this setting: rat brain minus cerebellum membranes, 5 nM [3H]-MLA, read-out: α7 binding [3H]MLA Ki.

One may read the Ki as a measure of affinity in units of concentration, obtained from inhibition or displacement.

Sequence of hERG ion channel (Q12809 whole entry): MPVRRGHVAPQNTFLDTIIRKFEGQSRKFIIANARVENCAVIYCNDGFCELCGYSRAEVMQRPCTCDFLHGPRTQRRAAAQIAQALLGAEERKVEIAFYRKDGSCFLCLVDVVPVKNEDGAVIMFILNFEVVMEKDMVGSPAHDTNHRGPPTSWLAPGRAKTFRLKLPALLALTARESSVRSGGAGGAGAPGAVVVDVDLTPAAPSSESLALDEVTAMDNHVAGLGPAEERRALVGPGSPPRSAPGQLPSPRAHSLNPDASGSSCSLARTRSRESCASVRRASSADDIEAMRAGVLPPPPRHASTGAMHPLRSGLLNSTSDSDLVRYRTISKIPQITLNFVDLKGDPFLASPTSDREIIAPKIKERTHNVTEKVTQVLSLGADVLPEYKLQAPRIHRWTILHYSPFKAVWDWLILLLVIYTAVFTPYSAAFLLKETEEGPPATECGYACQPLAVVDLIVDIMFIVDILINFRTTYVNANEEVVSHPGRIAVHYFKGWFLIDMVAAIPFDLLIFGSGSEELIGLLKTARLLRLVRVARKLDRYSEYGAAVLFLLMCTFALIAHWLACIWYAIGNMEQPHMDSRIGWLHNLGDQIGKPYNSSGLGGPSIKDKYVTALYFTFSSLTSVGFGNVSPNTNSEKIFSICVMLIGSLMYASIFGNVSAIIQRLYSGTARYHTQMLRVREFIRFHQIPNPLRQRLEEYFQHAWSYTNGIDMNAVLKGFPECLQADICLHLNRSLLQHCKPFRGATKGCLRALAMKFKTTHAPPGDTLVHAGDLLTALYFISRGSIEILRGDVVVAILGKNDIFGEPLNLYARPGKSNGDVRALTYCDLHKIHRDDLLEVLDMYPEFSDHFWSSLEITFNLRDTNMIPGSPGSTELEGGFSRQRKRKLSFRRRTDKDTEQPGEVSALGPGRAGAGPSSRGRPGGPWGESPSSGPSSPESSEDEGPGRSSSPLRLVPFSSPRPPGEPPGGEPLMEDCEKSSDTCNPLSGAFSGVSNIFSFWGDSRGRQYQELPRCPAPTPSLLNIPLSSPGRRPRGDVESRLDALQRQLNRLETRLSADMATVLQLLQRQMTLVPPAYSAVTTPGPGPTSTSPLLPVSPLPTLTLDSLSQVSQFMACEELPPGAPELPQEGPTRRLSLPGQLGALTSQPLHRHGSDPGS
Protocol for hERG ion channel: Membrane aliquots were thawed and homogenized again in a glass Dounce homogenizer (approximately 10 passes). Test compounds were diluted (6 concentrations at half-log intervals) from DMSO stock solutions in assay buffer (135 mM NaCl, 5 mM KCl, 0.8 mM MgCl2, 10 mM HEPES, 10 mM glucose, 1 mM EGTA, 0.01% BSA, pH 7.4), and tested in duplicate at each concentration. The following were added to each 200 μl well of a 96-well polystyrene plate (Packard Optiplate, cat. # 6005290): 20 μl of assay binding buffer (for total bounds), or 1 μM astemizole (for non-specific bounds), or test compound, 50 μl of [^3H]-dofetilide, and 130 μl of membrane homogenate (final protein concentration=30 μg per well). The plates were incubated at room temperature for 45 m, aspirated onto GF/B filter plates, and washed with 2 ml of cold wash buffer. The radioactivity was counted in a Packard Topcount Scintillation Counter after addition of 50 μl of scintillant (Packard Microscint-20, cat. # 6013621). The data were analyzed with a four-parameter logistic equation (PRISM™, Graphpad or Assay Explorer™, MDL). Ki values were derived by means of the Cheng and Prusoff (1973) equation (Ki=IC50/1+[ligand]/Kd) using Kd values for [^3H]-dofetilide obtained from previously performed saturation assays (Diaz et al., 2004). […] Each Ki represents an average of at least two independent determinations.
Thus, binding affinities to the hERG channel were expressed in Ki value, i.e. Ki hERG.

For `c1cc2cc(-c3ccc(O[C@H]4CN5CCC4CC5)nn3)ccc2o1` [B, (R)-3-[6-(Benzofuran-5-yl)-pyridazin-3-yloxy]-1-aza-bicyclo[2.2.2]octane trifluoroacetate, reference compound], on hERG ion channel, affinity was put at a Ki of 4090 nM and the selectivity ratio at 45 min was 29. For the same molecule, the Ki at α7 nAChRs (setting [1]) is 142 nM.

Take `C1=Cc2cc(-c3ccc(O[C@H]4CN5CCC4CC5)nn3)ccc2C1` [D, (R)-3-[6-(1H-Inden-5-yl)-pyridazin-3-yloxy]-1-aza-bicyclo[2.2.2]octane trifluoroacetate, reference compound]: on hERG ion channel, the affinity, expressed as Ki, was 2090 nM and the selectivity ratio at 45 min was 133. Besides, the inhibition constant (Ki) on α7 nAChRs (setting [1]) came to 15.7 nM.

As for `c1cc2c(cc1-c1ccc(O[C@H]3CN4CCC3CC4)nn1)CCC2` [E, (R)-3-(6-Indan-5-yl-pyridazin-3-yloxy)-1-aza-bicyclo[2.2.2]octane trifluoroacetate, reference compound], at hERG ion channel, the Ki was determined as 1680 nM and the selectivity ratio at 45 min was found to be 50. For the same molecule, the Ki at α7 nAChRs (setting [1]) amounted to 33.9 nM.

For `c1cc2cc(-c3ccc(O[C@H]4CN5CCC4CC5)nn3)ccc2[nH]1` [Example 9, 5-{6-[(3R)-1-Azabicyclo[2.2.2]oct-3-yloxy]pyridazin-3-yl}-1H-indole], the Ki came to 10900 nM on hERG ion channel and 6.7 nM at α7 nAChRs (setting [1]). Besides, on hERG ion channel, the selectivity ratio at 45 min was 1620.

As to `Cc1c[nH]c2ccc(-c3ccc(O[C@H]4CN5CCC4CC5)nn3)cc12` [Example 10, 5-{6-[(3R)-1-Azabicyclo[2.2.2]oct-3-yloxy]pyridazin-3-yl}-3-methyl-1H-indole], at hERG ion channel, affinity was put at a Ki of 5200 nM and the selectivity ratio at 45 min was found to be 1680. The same molecule returned a Ki on α7 nAChRs of 3.1 nM.

`c1cc(-c2cnc(O[C@H]3CN4CCC3CC4)nc2)c2cc[nH]c2c1` [Example 12, 4-{2-[(3R)-1-Azabicyclo[2.2.2]oct-3-yloxy]pyrimidin-5-yl}-1H-indole]: on hERG ion channel, the Ki was 8830 nM and the selectivity ratio at 45 min amounted to 516. In addition, affinity on α7 nAChRs was put at a Ki of 17.1 nM.

In the case of `Nc1nc2ccc(-c3ccc(O[C@H]4CN5CCC4CC5)cc3)cc2s1` [Example 16, 6-{4-[(3R)-1-Azabicyclo[2.2.2]oct-3-yloxy]phenyl}-1,3-benzothiazol-2-amine], the Ki on hERG ion channel is 1510 nM; at α7 nAChRs, 1.7 nM. On hERG ion channel, the selectivity ratio at 45 min amounted to 888.

As for `Cc1n[nH]c2ccc(-c3ccc(O[C@H]4CN5CCC4CC5)nn3)cc12` [Example 20, (R)-3-[6-(3-Methyl-1H-indazol-5-yl)-pyridazin-3-yloxy]-1-aza-bicyclo[2.2.2]octane fumarate], on hERG ion channel, affinity was put at a Ki of 13000 nM and the selectivity ratio at 45 min turned out to be 797. The inhibition constant (Ki) on α7 nAChRs (setting [1]) came out at 16.3 nM.

Consider `CN(C)Cc1c[nH]c2ccc(-c3ccc(O[C@H]4CN5CCC4CC5)nn3)cc12` [Example 22, (R)-{5-[6-(1-Aza-bicyclo[2.2.2]oct-3-yloxy)-pyridazin-3-yl]-1H-indol-3-ylmethyl}-dimethyl-amine bis(fumarate)], for which, on hERG ion channel, the Ki came out at 37300 nM and the selectivity ratio at 45 min turned out to be 669. The Ki on α7 nAChRs (setting [1]) was 55.8 nM.

As to `O=C1Cc2cc(-c3ccc(O[C@H]4C[N+]5([O-])CCC4CC5)nn3)ccc2N1` [Example 27, 5-{6-[(3R)-1-Oxy-1-Aza-bicyclo[2.2.2]oct-3-yloxy]-pyridazin-3-yl}-1,3-dihydro-indol-2-one bis(hydrogen chloride)], on hERG ion channel, the inhibition constant Ki is above 50000 nM and the selectivity ratio at 45 min is above 4000. Further, the inhibition constant (Ki) on α7 nAChRs (setting [1]) came out at 13.9 nM.

With `c1cc2cc(-c3ccc(O[C@@H]4CN5CCC4CC5)nn3)ccc2[nH]1` [Example 30, (S)-3-[6-(1H-Indol-5-yl)-pyridazin-3-yloxy]-1-aza-bicyclo[2.2.2]octane fumarate], at hERG ion channel, affinity was put at a Ki of 12700 nM and the selectivity ratio at 45 min was 2960. Moreover, the inhibition constant (Ki) at α7 nAChRs (setting [1]) worked out at 4.3 nM.

For `c1cc2cc(-c3ccc(O[C@H]4CN5CCC4CC5)nc3)ccc2[nH]1` [Example 31, (R)-3-[5-(1H-Indol-5-yl)-pyridin-2-yloxy]-1-aza-bicyclo[2.2.2]octane trifluoroacetate], at hERG ion channel, the inhibitory constant (Ki) was 2570 nM and the selectivity ratio at 45 min stood at 339. Further, the Ki on α7 nAChRs (setting [1]) was 7.6 nM.

With `c1ccc2cc(-c3ccc(O[C@H]4CN5CCC4CC5)nn3)ccc2c1` [Example A, (R)-3-(6-Naphthalen-2-yl-pyridazin-3-yloxy)-1-aza-bicyclo[2.2.2]octane trifluoroacetate, reference compound], the inhibition constant Ki was 838 nM on hERG ion channel and 78.9 nM on α7 nAChRs (setting [1]). Also, the selectivity ratio at 45 min at hERG ion channel was found to be 11.

`c1ccc2oc(-c3ccc(O[C@H]4CN5CCC4CC5)nn3)cc2c1` [Example C, (R)-3-[6-(Benzofuran-2-yl)-pyridazin-3-yloxy]-1-aza-bicyclo[2.2.2]octane trifluoroacetate, reference compound]: at hERG ion channel, affinity was put at a Ki of 392 nM and the selectivity ratio at 45 min was determined as 2. Besides, the Ki at α7 nAChRs (setting [1]) was determined as 162 nM.
